For five compounds, IC50 results are on record in BindingDB's records for doi:10.1016/s0960-894x(03)00408-6 (Millennium Pharmaceuticals, 2003).

The target of one test is Protein kinase C (PKC). Kind of test: Inhibitory activity against protein kinase C.
Test [1] concerns the target cAMP-dependent protein kinase catalytic subunit alpha/beta/gamma (Homo sapiens, UniProt P17612+P22694+P22612). Kind of test: Inhibitory activity against protein kinase A.

In the case of `O=[N+]([O-])c1cc(Cl)cc2c1[nH]c1cnccc12` [6-Chloro-8-nitro-9H-beta-carboline], the IC50 (against Protein kinase C (PKC); in test [1]) was more than 25 µM each time.

Turning to `COc1ccccc1C(=O)Nc1cc(Cl)cc2c3cc[nH]cc-3nc12` [N-(6-Chloro-9H-beta-carbolin-8-yl)-2-methoxy-benzamide], the half-maximal inhibitory concentration (IC50) (on Protein kinase C (PKC); in test [1]) was more than 25 µM throughout.

For `Clc1cc2c3cc[nH]cc-3nc2c(Cl)c1OCC1CC1` [6,8-Dichloro-7-cyclopropylmethoxy-9H-beta-carboline], the IC50 (at Protein kinase C (PKC); in test [1]) was more than 25 µM throughout.

On to `COc1ccc(C(=O)Nc2cc(Cl)cc3c4cc[nH]cc-4nc23)cc1` [N-(6-Chloro-9H-beta-carbolin-8-yl)-4-methoxy-benzamide], for which the IC50 (at Protein kinase C (PKC); in test [1]) was more than 25 µM each time.

As to `COc1cccc(C(=O)Nc2cc(Cl)cc3c4cc[nH]cc-4nc23)c1` [N-(6-Chloro-9H-beta-carbolin-8-yl)-3-methoxy-benzamide], the IC50 (against Protein kinase C (PKC); in test [1]) was more than 25 µM throughout.

Usually IC50 stands for the midpoint of a concentration-inhibition curve.
